From publication PMC12647645, “Structural interactions of BWC0977 with Klebsiella pneumoniae topoisomerase IV and biochemical basis of its broad-spectrum activity” (Communications Biology, 2025)
Converted amounts (≈) assume the structure as drawn. “And” between values parts separate entries of the source, which are not always exact repeats. Identical values can stand only once. Like-named read-outs stand apart in the source and are kept apart here.

What was measured:
E. coli topoisomerase IV = target: T1, E. coli topoisomerase IV (Escherichia coli, UniProt P0AFI2+P20083); assay: biochemical; type: biochemical
T1 construct: purchased Inspiralis

Human topo IIß = Human topo IIß (Homo sapiens, UniProt Q02880); assay: Human topo IIß decatenation assay; type: biochemical
Procedure: Human topo IIα (0.9 nM) and topo IIß (2.2 nM) decatenation assays were performed following the same protocol used for bacterial topoisomerase IV decatenation assays. The assay buffer was made of 50 mM Tris. HCl (pH 7.5), 125 mM NaCl, 10 mM MgCl2, 5 mM DTT, and 100 μg/mL albumin.

P. aeruginosa gyrase = P. aeruginosa gyrase (Pseudomonas aeruginosa, UniProt P48372+Q9I7C2); assay: biochemical; conditions: for Gyrase supercoiling inhibition response: P. aeruginosa gyrase
S. aureus gyrase = S. aureus gyrase (Staphylococcus aureus, UniProt P0A0K8+P20831); assay: biochemical
[1] = test system: E. coli MG1655 GyrA D82N, ParC D79N; assay: microbe, parasite or virus in culture; type: cell-based; conditions: Escherichia coli
[2] = test system: E. coli MG1655 GyrA WT, ParC R119K; assay: microbe, parasite or virus in culture; type: cell-based; conditions: Escherichia coli
S. aureus ATCC 29213 = assay: MIC broth microdilution; type: cell-based; conditions: Staphylococcus aureus, ATCC29213
A. baumannii ATCC 19606 [3] = assay: MIC broth microdilution; type: cell-based; conditions: Acinetobacter baumannii
K. pneumoniae BAA 2782 = assay: microbe, parasite or virus in culture; type: cell-based; conditions: Klebsiella pneumoniae, BAA2782
K. pneumoniae KPNIH1 = assay: microbe, parasite or virus in culture; type: cell-based; conditions: Klebsiella pneumoniae
A. baumannii ATCC 19606 [4] = assay: In vitro spontaneous resistance frequency; type: cell-based
Procedure: (§1) Spontaneous resistance frequencies to BWC0977 were evaluated in E. coli ATCC 25922, P. aeruginosa ATCC 27853, and A. baumannii ATCC 19606. Mid-logarithmic phase cultures (~10^9 CFU/mL) were plated onto Luria-Bertani agar containing BWC0977 at 4×, 8×, and 16× the respective MICs. Plates were incubated at 37 °C for 24–36 h, and resistance frequencies were estimated by counting colony-forming units (CFUs) on the drug-containing plates. MICs of the isolated colonies were determined, and the gyrA, gyrB, parC, and parE genes were sequenced to assess for target-site mutations.

E. coli ATCC 25922 [5] = assay: In vitro spontaneous resistance frequency; type: cell-based
Procedure: as §1

E. coli ATCC 25922 [6] = assay: Resistant mutant generation by serial passage method; type: cell-based; conditions: Escherichia coli, read-out: MIC, serial passage
E. cloacae = conditions: ref 6 (Hameed P et al., 2024); cited from earlier work
P. aeruginosa = test system: P. aeruginosa; design: method as in ref 6 (Hameed P et al., 2024); conditions: ref 6 (Hameed P et al., 2024); cited from earlier work
[7] = test system: multidrug-resistant (MDR) Gram-negative bacteria, Gram-positive bacteria, anaerobes, and biothreat pathogens; conditions: diverse global panel; cited from earlier work
P. aeruginosa ATCC 27853 = conditions: >4× MIC; cited from earlier work

With `Cn1c(=O)ccc2ccc(F)c(CCNC[C@H]3CN(c4cnc5c(n4)NC(=O)CO5)C(=O)O3)c21` [BWC0977] the “Topo IV decatenation inhibition response” value (E. coli topoisomerase IV; E. coli topo IV, compound 0.008 μM, source data Fig 2A, listed as 977, 0.008 µM) was 28.08 and 39.25, the inhibition at 0.008 µM (E. coli topoisomerase IV; E. coli topo IV, compound 0.008 μM, source data Fig 2A, read-out: Topo IV decatenation inhibition response) was 30.8% and the “Topo IV decatenation inhibition response” value (E. coli topoisomerase IV; E. coli topo IV, compound 0.074 μM, source data Fig 2A, listed as 977, 0.074 µM) was 89.53 and 79.92. For the same molecule, the inhibition at 0.074 µM (E. coli topoisomerase IV; E. coli topo IV, compound 0.074 μM, source data Fig 2A, read-out: Topo IV decatenation inhibition response) was 75.6%, the “Topo IV decatenation inhibition response” value (E. coli topoisomerase IV; E. coli topo IV, compound 0.222 μM, source data Fig 2A, listed as 977, 0.222 µM) was 92.32 and 88.38 and the inhibition at 0.222 µM (E. coli topoisomerase IV; E. coli topo IV, compound 0.222 μM, source data Fig 2A, read-out: Topo IV decatenation inhibition response) was 83.4%. For the same molecule, the “Topo IV decatenation inhibition response” value (E. coli topoisomerase IV; E. coli topo IV, compound 2 μM, source data Fig 2A, listed as 977, 2 µM) was 94.13 and 90.30, the inhibition at 2 µM (E. coli topoisomerase IV; E. coli topo IV, compound 2 μM, source data Fig 2A, read-out: Topo IV decatenation inhibition response) was 84.8% and the “higher inhibition potency compared to compound 17a” value (E. coli topoisomerase IV; E. coli topoisomerase IV) was ~ 20 fold. For the same molecule, the IC50 (E. coli topoisomerase IV; read-out: IC50 E. coli topo IV decatenation) was 13 ± 4 nM, the IC50 (Human topo IIß) was > 200000 nM and the IC50 (P. aeruginosa gyrase) was 9.4 nM. The “Gyrase supercoiling inhibition response” value (P. aeruginosa gyrase; compound 0.0005 μM, source data Fig 2B, listed as 977, 0.0005 µM) was 6.77, the “Gyrase supercoiling inhibition response” value (P. aeruginosa gyrase; compound 0.001 μM, source data Fig 2B, listed as 977, 0.001 µM) was 9.59 and the “Gyrase supercoiling inhibition response” value (P. aeruginosa gyrase; compound 0.004 μM, source data Fig 2B, listed as 977, 0.004 µM) was 27.41. For the same molecule, the “Gyrase supercoiling inhibition response” value (P. aeruginosa gyrase; compound 0.012 μM, source data Fig 2B, listed as 977, 0.012 µM) was 48.08, the “Gyrase supercoiling inhibition response” value (P. aeruginosa gyrase; compound 0.037 μM, source data Fig 2B, listed as 977, 0.037 µM) was 69.93 and the “Gyrase supercoiling inhibition response” value (P. aeruginosa gyrase; compound 0.111 μM, source data Fig 2B, listed as 977, 0.111 µM) was 87.28. The “Gyrase supercoiling inhibition response” value (P. aeruginosa gyrase; compound 0.333 μM, source data Fig 2B, listed as 977, 0.333 µM) was 93.63, the “Gyrase supercoiling inhibition response” value (P. aeruginosa gyrase; compound 1 μM, source data Fig 2B, listed as 977, 1 µM) was 99.48 and the “Gyrase supercoiling inhibition response” value (P. aeruginosa gyrase; compound 3 μM, source data Fig 2B, listed as 977, 3 µM) was 100.23. For the same molecule, the inhibition at 0.0005 µM (P. aeruginosa gyrase; read-out: Gyrase supercoiling inhibition response, P. aeruginosa gyrase, compound 0.0005 μM, source data Fig 2B) was 12.6%, the inhibition at 0.001 µM (P. aeruginosa gyrase; read-out: Gyrase supercoiling inhibition response, P. aeruginosa gyrase, compound 0.001 μM, source data Fig 2B) was 16.5% and the inhibition at 0.004 µM (P. aeruginosa gyrase; read-out: Gyrase supercoiling inhibition response, P. aeruginosa gyrase, compound 0.004 μM, source data Fig 2B) was 32.4%. The inhibition at 0.012 µM (P. aeruginosa gyrase; read-out: Gyrase supercoiling inhibition response, P. aeruginosa gyrase, compound 0.012 μM, source data Fig 2B) was 61.3%, the inhibition at 0.037 µM (P. aeruginosa gyrase; read-out: Gyrase supercoiling inhibition response, P. aeruginosa gyrase, compound 0.037 μM, source data Fig 2B) was 85.1% and the inhibition at 0.111 µM (P. aeruginosa gyrase; read-out: Gyrase supercoiling inhibition response, P. aeruginosa gyrase, compound 0.111 μM, source data Fig 2B) was 97.4%. For the same molecule, the inhibition at 0.333 µM (P. aeruginosa gyrase; read-out: Gyrase supercoiling inhibition response, P. aeruginosa gyrase, compound 0.333 μM, source data Fig 2B) was 99%, the inhibition at 1 µM (P. aeruginosa gyrase; read-out: Gyrase supercoiling inhibition response, P. aeruginosa gyrase, compound 1 μM, source data Fig 2B) was 99.8% and the inhibition at 3 µM (P. aeruginosa gyrase; read-out: Gyrase supercoiling inhibition response, P. aeruginosa gyrase, compound 3 μM, source data Fig 2B) was 103%. The “Gyrase supercoiling inhibition response” value (S. aureus gyrase; S. aureus gyrase, compound 0.0002 μM, source data Fig 2C, listed as 977, 0.0002 µM) was 1.69 and 1.99, the inhibition at 0.0002 µM (S. aureus gyrase; S. aureus gyrase, compound 0.0002 μM, source data Fig 2C, read-out: Gyrase supercoiling inhibition response) was 2.89% and the “Gyrase supercoiling inhibition response” value (S. aureus gyrase; S. aureus gyrase, compound 0.001 μM, source data Fig 2C, listed as 977, 0.001 µM) was 21.39 and 19.98. The inhibition at 0.001 µM (S. aureus gyrase; S. aureus gyrase, compound 0.001 μM, source data Fig 2C, read-out: Gyrase supercoiling inhibition response) was 26.9%, the “Gyrase supercoiling inhibition response” value (S. aureus gyrase; S. aureus gyrase, compound 0.004 μM, source data Fig 2C, listed as 977, 0.004 µM) was 39.52 and 42.6 and the inhibition at 0.004 µM (S. aureus gyrase; S. aureus gyrase, compound 0.004 μM, source data Fig 2C, read-out: Gyrase supercoiling inhibition response) was 46.8%. For the same molecule, the “Gyrase supercoiling inhibition response” value (S. aureus gyrase; S. aureus gyrase, compound 0.012 μM, source data Fig 2C, listed as 977, 0.012 µM) was 60.4 and 63.65, the inhibition at 0.012 µM (S. aureus gyrase; S. aureus gyrase, compound 0.012 μM, source data Fig 2C, read-out: Gyrase supercoiling inhibition response) was 57.6% and the “Gyrase supercoiling inhibition response” value (S. aureus gyrase; S. aureus gyrase, compound 0.037 μM, source data Fig 2C, listed as 977, 0.037 µM) was 62.46 and 64.07. The inhibition at 0.037 µM (S. aureus gyrase; S. aureus gyrase, compound 0.037 μM, source data Fig 2C, read-out: Gyrase supercoiling inhibition response) was 66.3%, the “Gyrase supercoiling inhibition response” value (S. aureus gyrase; S. aureus gyrase, compound 0.111 μM, source data Fig 2C, listed as 977, 0.111 µM) was 73.28 and 76.49 and the inhibition at 0.111 µM (S. aureus gyrase; S. aureus gyrase, compound 0.111 μM, source data Fig 2C, read-out: Gyrase supercoiling inhibition response) was 70.2%. The “Gyrase supercoiling inhibition response” value (S. aureus gyrase; S. aureus gyrase, compound 0.333 μM, source data Fig 2C, listed as 977, 0.333 µM) was 87.57 and 81.68, the inhibition at 0.333 µM (S. aureus gyrase; S. aureus gyrase, compound 0.333 μM, source data Fig 2C, read-out: Gyrase supercoiling inhibition response) was 84% and the “Gyrase supercoiling inhibition response” value (S. aureus gyrase; S. aureus gyrase, compound 1 μM, source data Fig 2C, listed as 977, 1 µM) was 89.66 and 78.1. For the same molecule, the inhibition at 1 µM (S. aureus gyrase; S. aureus gyrase, compound 1 μM, source data Fig 2C, read-out: Gyrase supercoiling inhibition response) was 91.1%, the “Gyrase supercoiling inhibition response” value (S. aureus gyrase; S. aureus gyrase, compound 3 μM, source data Fig 2C, listed as 977, 3 µM) was 98.25 and 99.54 and the inhibition at 3 µM (S. aureus gyrase; S. aureus gyrase, compound 3 μM, source data Fig 2C, read-out: Gyrase supercoiling inhibition response) was 94.8%. The IC50 (S. aureus gyrase; Supplementary Fig 1G) was 9 nM, the MIC [1] was 7.5 µg/mL (≈ 16 µM) and the MIC [2] was 0.026 µg/mL (≈ 0.0555 µM). The MIC (S. aureus ATCC 29213) was 0.007 µg/mL (≈ 0.0149 µM), the MIC (A. baumannii ATCC 19606 [3]; ATCC19606) was 0.125 µg/mL (≈ 0.267 µM) and the MIC90 (A. baumannii ATCC 19606 [3]; ATCC19606, read-out: MIC 90 in (μg/mL), A. baumannii ATCC 19606 (WT)) was 0.15 µg/mL (≈ 0.32 µM). For the same molecule, the MIC (K. pneumoniae BAA 2782) was 0.125 µg/mL (≈ 0.267 µM), the MIC (K. pneumoniae KPNIH1) was 1 µg/mL (≈ 2.13 µM) and the “number of resistant mutant colonies” value (A. baumannii ATCC 19606 [4]; 0.6 μg/mL (4× MIC)) was “five”. The resistance frequency (A. baumannii ATCC 19606 [4]; 4× MIC) was “less than 1 × 10^−9”, the “MIC increase of resistant colonies” value (A. baumannii ATCC 19606 [4]; colonies selected at 4× MIC of the same compound) was “four-fold” and the resistance frequency (E. coli ATCC 25922 [5]; 4× MIC) was “less than 1 × 10^−9”. The “sensitivity of ciprofloxacin-resistant mutants (GyrA S83L or D87Y)” value (E. coli ATCC 25922 [5]; mutants selected with ciprofloxacin 0.05 μg/mL) was “remained sensitive”, the MIC (E. coli ATCC 25922 [6]; ATCC25922, 24 h) was 0.015 µg/mL (≈ 0.032 µM) and the MIC (E. coli ATCC 25922 [6]; ATCC25922, 288 h) was 0.125 µg/mL (≈ 0.267 µM). For the same molecule, the “MIC90 against diverse global isolates” value (E. cloacae) was 2 µg/mL (≈ 4.27 µM), the “MIC90 against diverse global isolates” value (P. aeruginosa) was 1 µg/mL (≈ 2.13 µM) and the “minimum inhibitory concentration (MIC90) range” value [7] was 0.03 to 2 µg/mL. The “resistant colonies on exposure” value (P. aeruginosa ATCC 27853) was “no resistant colonies”.
